Legend:
Type in all cases: biochemical
c-Raf-1 = target: T1, c-Raf-1 (Homo sapiens, UniProt P04049); assay: AlphaScreen kinase assay, c-Raf-1; details: read-out: IC50, activity toward kinase c-Raf-1
T1 construct: purchased Upstate Biotechnology

TEC = target: T2, TEC (Homo sapiens, UniProt P42680); assay: AlphaScreen kinase assay, TEC; details: read-out: IC50, activity toward kinase TEC
T2 sequence (P42680 1-631): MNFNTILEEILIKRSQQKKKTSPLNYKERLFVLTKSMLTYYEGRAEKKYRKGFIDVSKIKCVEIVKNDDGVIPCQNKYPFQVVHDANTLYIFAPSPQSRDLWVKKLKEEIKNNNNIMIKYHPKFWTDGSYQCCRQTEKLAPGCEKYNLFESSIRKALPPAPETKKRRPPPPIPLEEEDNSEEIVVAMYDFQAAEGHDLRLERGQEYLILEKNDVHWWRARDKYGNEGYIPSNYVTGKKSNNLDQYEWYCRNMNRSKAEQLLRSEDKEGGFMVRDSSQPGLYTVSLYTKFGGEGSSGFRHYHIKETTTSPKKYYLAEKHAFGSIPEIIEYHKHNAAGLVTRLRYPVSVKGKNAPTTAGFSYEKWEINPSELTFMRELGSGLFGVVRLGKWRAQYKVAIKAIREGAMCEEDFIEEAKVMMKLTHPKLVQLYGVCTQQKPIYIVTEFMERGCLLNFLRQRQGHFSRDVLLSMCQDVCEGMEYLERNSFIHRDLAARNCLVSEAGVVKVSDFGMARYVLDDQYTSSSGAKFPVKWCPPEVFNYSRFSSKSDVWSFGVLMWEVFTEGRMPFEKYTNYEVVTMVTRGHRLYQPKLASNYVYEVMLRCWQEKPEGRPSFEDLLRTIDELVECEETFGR
Excerpt: AlphaScreen assay was used to screen additional kinases. The assay is similarly dependent on the phosphorylation of a peptide substrate. In this assay, an antibody that recognizes phosphorylated substrate is bound to an acceptor bead. The peptide substrate is attached to biotin, which binds to a donor head that contains streptavidin. Thus phosphorylated substrate is bound by antibody and streptavidin, bringing the donor and acceptor heads into close proximity when kinase is not inhibited. The donor produces singlet oxygen which results in emission from the acceptor when they are in close proximity. Conversely, when kinase is inhibited, the donor and acceptor beads are not associated and the emission from the acceptor is reduced.
AlphaScreen assays were done using compounds dissolved in DMSO to a concentration of 20 mM. The compounds were diluted accordingly to the desired final concentrations in each sample well, using 1:3 serial dilution for a total of 8 concentration points.

Pyk2 = target: T3, Pyk2 (Homo sapiens, UniProt Q14289); assay: AlphaScreen kinase assay, Pyk2; details: read-out: IC50, activity toward kinase Pyk2
T3 construct: purchased Upstate Biotechnology

Jnk1 = target: T4, Jnk1 (Homo sapiens, UniProt P45983); assay: AlphaScreen kinase assay, Jnk1; details: read-out: IC50, activity toward kinase Jnk1
T4 construct: purchased Upstate Biotechnology

B-Raf = target: T5, B-Raf (Homo sapiens, UniProt P15056); assay: AlphaScreen kinase assay, B-Raf; details: read-out: IC50, activity toward kinase B-Raf
T5 construct: purchased Upstate Biotechnology

FGFR1 = target: T6, FGFR1 (Homo sapiens, UniProt P11362, C488A/C584S); assay: AlphaScreen kinase assay, FGFR1; details: read-out: IC50, activity toward kinase FGFR
T6 construct: P1351.pET N6 BI-PTP FGFR A458-E765-X C488A, C584S; made in house; host or cells: E. coli (PTP1B co-expressed)

Btk = target: T7, Btk (Homo sapiens, UniProt Q06187); assay: Z'-Lyte FRET kinase assay (Invitrogen), Btk; details: read-out: IC50, activity toward kinase Btk
T7 construct: purchased Invitrogen (assay run by Invitrogen)
Excerpt: For example, direct radiometric, indirect FRET or AlphaScreen assays may be used to assess the level of phosphorylation of a substrate in the presence of test compounds in order to determine the inhibitory affect of the compound on the kinase. […] For these assays, compounds of the invention were screened by Invitrogen using Z′-Lyte™ kinase assay.
Briefly, the Invitrogen kinase assay involves use of a specific peptide substrate optimized for each kinase, containing a fluorophore at each end that make up the FRET pair. The peptide sensitivity to proteolytic cleavage depends on phosphorylation of the peptide. Non-phosphorylated peptide is cleaved by a protease while peptide phosphorylated by the kinase is not cleaved. Cleavage of the peptide disrupts the FRET between the donor (coumarin) and acceptor (fluorescein) fluorophores, resulting in an increase in the ratio of donor emission to acceptor emission. The emission ratio of coumarin to fluorescein is used to assess the reaction progress. […] Thus, the assay involves a kinase reaction in the presence of varying concentrations of a given compound, a development reaction with site specific protease, and detection of the fluorescent emission ratio of coumarin and fluorscein. […] Reaction conditions for each kinase are determined to provide optimal reaction times, incubation temperature, kinase and ATP concentrations. Test samples are made up in 1× kinase buffer (50 mM HEPES pH 7.5, 50 mM MgCl2, 5 mM EGTA, 0.05% BRIJ-35) and compound at desired concentration prepared in DMSO such that the final DMSO is 1%. […] All kinase except for MAP2K1 were at 10 μM ATP in the kinase reaction, while MAP2K1 was at 100 μM. Samples are mixed and the kinase reaction is incubated 1 hour at room temperature, after which 5 μl of development solution is added and mixed. After incubation for another 1 hour at room temperature, 5 μl of stop reagent is added to each sample and mixed. The fluorescence signals are measured to determine the emission ratio.

B-Raf V600E = target: T8, B-Raf V600E (Homo sapiens, UniProt P15056, V600E); assay: AlphaScreen kinase assay, B-Raf V600E; details: read-out: IC50, activity toward kinase B-Raf V600E
T8 construct: P4254. pFastBacBD-CDC37 BRAF D437-K722-X, V600E; His6 with pFastBac HT leader (TEV site) (N); made in house; host or cells: Sf9 (baculovirus; chaperone CDC37 co-expressed)

Met = target: T9, Met (Homo sapiens, UniProt P08581); assay: AlphaScreen kinase assay, Met; details: read-out: IC50, activity toward kinase Met
T9 construct: P1818.pETN6 BI-PTP MET G1056-G1364-X WT; His6 (N); made in house; host or cells: E. coli (PTP1B co-expressed)
Outline: (§1)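 AlphaScreen, biotin-peptide substrate; streptavidin donor/anti-phospho acceptor beads; decreased emission = inhibition. Cpds 20 mM DMSO stock, 1:3 x 8 conc.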

Jnk2 = target: T10, Jnk2 (Homo sapiens, UniProt P45984); assay: AlphaScreen kinase assay, Jnk2; details: read-out: IC50, activity toward kinase Jnk2
T10 construct: purchased Roche Protein Expression Group (Indianapolis, IN)
Outline: as §1

Fms = target: T11, Fms (Homo sapiens, UniProt P07333); assay: AlphaScreen kinase assay, Fms; details: read-out: IC50, activity toward kinase Fms
T11 construct: purchased Upstate Biotechnology

Ret = target: T12, Ret (Homo sapiens, UniProt P07949); assay: AlphaScreen kinase assay, Ret; details: read-out: IC50, activity toward kinase Ret
T12 construct: P1378.pET-SF BI-PTP RET H661-R1012 HIS; made in house
T12 sequence (P07949 with tags, fused parts or gaps): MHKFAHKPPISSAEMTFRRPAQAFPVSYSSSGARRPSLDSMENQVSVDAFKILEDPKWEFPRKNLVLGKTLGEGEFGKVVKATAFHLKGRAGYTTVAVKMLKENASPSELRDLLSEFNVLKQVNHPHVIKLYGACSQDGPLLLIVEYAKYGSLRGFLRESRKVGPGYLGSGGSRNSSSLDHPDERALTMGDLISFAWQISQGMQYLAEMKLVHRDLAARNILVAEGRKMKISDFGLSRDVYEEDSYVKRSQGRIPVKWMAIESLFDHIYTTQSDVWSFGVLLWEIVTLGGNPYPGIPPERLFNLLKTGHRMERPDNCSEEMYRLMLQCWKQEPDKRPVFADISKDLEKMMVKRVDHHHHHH

Jnk3 = target: T13, Jnk3 (Homo sapiens, UniProt P53779); assay: AlphaScreen kinase assay, Jnk3; details: read-out: IC50, activity toward kinase Jnk3
T13 construct: purchased Upstate Biotechnology

Zap70 = target: T14, Zap70 (Homo sapiens, UniProt P43403); assay: AlphaScreen kinase assay, Zap70; details: read-out: IC50, activity toward kinase Zap70
T14 construct: P1868.pFastBac1 ZAP70 D327-G606 HIS, WT; His7 (HHHHHHH) (C); made in house
T14 sequence (P43403 with tags, fused parts or gaps): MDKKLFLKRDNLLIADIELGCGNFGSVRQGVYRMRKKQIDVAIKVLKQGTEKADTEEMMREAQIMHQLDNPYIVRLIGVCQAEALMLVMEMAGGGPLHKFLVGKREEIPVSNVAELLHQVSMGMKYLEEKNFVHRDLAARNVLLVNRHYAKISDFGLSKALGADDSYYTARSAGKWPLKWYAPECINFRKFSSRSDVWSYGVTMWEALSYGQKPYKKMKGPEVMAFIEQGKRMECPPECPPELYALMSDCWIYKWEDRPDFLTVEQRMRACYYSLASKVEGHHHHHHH
Outline: as §1

Kit = target: T15, Kit (Homo sapiens, UniProt P10721); assay: AlphaScreen kinase assay, Kit; details: read-out: IC50, activity toward kinase Kit
T15 construct: P1332.N6 BI PTP KIT M552-K948-X COD; His6 (N); made in house; host or cells: E. coli (PTP1B co-expressed)

Fak = target: T16, Fak (Homo sapiens, UniProt Q05397); assay: AlphaScreen kinase assay, Fak; details: read-out: IC50, activity toward kinase Fak
T16 construct: P1358.pFastBacHtb FAK S411-Q686-X; His6 with pFastBacHTb leader (TEV site) (N); made in house; host or cells: Sf9 (baculovirus)
Method: AlphaScreen assays were done using compounds dissolved in DMSO to a concentration of 20 mM. The compounds were diluted accordingly to the desired final concentrations in each sample well, using 1:3 serial dilution for a total of 8 concentration points. Plates were prepared such that each kinase reaction is 20 μl in 1× kinase buffer, 5% DMSO and 10 μM ATP. After incubation of the kinase reaction for 1 hour at room temperature, 5 μl of donor beads in stop buffer (50 mM EDTA in 1× kinase buffer) was added, the sample was mixed and incubated for 20 minutes at room temperature before adding 5 μl of acceptor beads in stop buffer. The samples were incubated for 60 minutes at room temperature and the signal per well was read on AlphaQuest reader.

Src = target: T17, Src (Homo sapiens, UniProt P12931); assay: AlphaScreen kinase assay, Src; details: read-out: IC50, activity toward kinase Src
T17 construct: P1144. pET-N6 BI-PTP SRC V86-L536-X; made in house

Measured: IC50

T8 sequence (P15056 with tags, fused parts or gaps V600E): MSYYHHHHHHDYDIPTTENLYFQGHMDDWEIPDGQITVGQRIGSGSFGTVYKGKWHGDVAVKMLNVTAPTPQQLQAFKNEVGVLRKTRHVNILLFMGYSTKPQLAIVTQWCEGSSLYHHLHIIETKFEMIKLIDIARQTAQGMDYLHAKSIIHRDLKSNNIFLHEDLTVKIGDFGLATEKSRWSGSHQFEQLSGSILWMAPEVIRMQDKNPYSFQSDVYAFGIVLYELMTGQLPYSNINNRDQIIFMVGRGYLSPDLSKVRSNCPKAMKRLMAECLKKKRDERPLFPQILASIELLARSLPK
T7 sequence (Q06187 whole entry): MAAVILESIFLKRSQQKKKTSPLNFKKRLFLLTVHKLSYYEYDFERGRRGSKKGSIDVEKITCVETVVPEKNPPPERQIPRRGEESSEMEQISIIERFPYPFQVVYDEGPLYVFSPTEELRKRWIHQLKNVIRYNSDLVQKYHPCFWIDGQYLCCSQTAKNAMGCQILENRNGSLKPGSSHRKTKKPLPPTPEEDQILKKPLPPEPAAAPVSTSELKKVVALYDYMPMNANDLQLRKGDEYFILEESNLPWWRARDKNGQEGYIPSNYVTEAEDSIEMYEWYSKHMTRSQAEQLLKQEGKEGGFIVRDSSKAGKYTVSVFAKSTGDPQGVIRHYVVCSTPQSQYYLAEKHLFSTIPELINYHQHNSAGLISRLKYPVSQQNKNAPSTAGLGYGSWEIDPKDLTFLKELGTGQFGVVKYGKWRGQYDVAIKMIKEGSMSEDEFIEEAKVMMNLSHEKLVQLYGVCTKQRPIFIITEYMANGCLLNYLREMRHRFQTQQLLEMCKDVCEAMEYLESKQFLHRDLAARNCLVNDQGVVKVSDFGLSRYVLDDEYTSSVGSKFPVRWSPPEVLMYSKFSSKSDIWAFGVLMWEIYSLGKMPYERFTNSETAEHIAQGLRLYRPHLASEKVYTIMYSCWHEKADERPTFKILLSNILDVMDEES
T4 sequence (P45983 whole entry): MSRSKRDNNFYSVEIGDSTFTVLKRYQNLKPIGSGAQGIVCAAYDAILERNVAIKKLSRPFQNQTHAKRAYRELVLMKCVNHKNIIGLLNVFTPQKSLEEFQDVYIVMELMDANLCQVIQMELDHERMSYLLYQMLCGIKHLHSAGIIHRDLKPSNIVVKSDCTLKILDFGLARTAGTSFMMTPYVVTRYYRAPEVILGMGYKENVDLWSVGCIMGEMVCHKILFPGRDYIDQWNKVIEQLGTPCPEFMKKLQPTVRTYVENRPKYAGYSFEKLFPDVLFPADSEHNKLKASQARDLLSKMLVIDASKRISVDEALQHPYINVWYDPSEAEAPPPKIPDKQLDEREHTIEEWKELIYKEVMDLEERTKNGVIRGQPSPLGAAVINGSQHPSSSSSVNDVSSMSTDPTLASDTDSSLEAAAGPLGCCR
T10 sequence (P45984 whole entry): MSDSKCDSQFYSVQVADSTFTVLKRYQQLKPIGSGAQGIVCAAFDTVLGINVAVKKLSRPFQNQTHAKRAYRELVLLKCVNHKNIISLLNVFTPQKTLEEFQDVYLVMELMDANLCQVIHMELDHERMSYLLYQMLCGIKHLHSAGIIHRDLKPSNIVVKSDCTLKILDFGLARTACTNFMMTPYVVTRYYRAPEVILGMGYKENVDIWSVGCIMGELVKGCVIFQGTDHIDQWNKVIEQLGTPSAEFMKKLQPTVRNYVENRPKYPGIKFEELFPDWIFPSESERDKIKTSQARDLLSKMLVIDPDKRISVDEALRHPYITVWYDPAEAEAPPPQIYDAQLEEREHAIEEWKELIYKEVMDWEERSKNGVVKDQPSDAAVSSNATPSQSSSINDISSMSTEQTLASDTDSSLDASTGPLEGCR
T5 sequence (P15056 whole entry): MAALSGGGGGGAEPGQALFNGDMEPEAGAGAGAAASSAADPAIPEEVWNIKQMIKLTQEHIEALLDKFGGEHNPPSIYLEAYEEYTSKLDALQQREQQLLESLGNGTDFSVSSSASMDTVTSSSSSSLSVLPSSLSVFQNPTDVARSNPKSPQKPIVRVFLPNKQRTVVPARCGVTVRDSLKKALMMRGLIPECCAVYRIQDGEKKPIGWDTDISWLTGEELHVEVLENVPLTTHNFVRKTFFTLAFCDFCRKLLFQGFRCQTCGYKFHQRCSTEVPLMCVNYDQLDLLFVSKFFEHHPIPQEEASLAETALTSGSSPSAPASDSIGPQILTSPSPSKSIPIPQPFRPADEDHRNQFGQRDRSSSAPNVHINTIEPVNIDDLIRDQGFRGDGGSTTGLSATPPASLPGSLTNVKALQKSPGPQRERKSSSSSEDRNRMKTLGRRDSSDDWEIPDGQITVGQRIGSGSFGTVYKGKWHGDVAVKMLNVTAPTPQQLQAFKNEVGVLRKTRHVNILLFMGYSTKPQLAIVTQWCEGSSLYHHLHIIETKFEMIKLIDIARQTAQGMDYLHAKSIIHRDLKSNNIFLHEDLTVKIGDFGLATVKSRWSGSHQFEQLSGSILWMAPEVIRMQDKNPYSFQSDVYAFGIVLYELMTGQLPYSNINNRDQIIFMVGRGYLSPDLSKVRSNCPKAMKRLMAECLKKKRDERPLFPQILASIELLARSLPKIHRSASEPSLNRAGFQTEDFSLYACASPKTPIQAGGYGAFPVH
T11 sequence (P07333 20-972): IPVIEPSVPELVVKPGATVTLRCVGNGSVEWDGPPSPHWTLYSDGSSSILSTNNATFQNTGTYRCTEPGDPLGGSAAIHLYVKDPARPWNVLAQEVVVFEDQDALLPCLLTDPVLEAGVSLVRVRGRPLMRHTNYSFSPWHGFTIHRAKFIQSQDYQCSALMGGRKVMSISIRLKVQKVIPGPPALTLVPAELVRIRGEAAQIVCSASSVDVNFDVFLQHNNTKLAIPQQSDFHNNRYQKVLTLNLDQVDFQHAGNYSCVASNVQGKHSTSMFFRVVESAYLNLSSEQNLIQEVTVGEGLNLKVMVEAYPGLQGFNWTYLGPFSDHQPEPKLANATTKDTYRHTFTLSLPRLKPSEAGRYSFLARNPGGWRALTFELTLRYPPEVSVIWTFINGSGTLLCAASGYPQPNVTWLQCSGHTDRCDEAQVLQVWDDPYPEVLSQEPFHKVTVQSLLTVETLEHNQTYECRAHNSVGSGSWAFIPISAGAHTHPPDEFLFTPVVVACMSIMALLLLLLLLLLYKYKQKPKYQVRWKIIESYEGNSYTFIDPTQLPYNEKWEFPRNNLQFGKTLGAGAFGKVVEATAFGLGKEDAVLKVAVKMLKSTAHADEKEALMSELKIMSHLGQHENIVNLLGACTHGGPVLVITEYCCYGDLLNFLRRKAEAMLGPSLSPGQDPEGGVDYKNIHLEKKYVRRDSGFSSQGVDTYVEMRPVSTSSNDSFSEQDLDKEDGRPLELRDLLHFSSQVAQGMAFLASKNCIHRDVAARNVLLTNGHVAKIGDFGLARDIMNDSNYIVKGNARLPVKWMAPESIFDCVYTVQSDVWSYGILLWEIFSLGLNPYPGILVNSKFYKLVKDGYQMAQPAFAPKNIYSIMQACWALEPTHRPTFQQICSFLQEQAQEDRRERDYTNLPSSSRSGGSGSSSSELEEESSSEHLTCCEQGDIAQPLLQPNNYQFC
T3 sequence (Q14289 whole entry): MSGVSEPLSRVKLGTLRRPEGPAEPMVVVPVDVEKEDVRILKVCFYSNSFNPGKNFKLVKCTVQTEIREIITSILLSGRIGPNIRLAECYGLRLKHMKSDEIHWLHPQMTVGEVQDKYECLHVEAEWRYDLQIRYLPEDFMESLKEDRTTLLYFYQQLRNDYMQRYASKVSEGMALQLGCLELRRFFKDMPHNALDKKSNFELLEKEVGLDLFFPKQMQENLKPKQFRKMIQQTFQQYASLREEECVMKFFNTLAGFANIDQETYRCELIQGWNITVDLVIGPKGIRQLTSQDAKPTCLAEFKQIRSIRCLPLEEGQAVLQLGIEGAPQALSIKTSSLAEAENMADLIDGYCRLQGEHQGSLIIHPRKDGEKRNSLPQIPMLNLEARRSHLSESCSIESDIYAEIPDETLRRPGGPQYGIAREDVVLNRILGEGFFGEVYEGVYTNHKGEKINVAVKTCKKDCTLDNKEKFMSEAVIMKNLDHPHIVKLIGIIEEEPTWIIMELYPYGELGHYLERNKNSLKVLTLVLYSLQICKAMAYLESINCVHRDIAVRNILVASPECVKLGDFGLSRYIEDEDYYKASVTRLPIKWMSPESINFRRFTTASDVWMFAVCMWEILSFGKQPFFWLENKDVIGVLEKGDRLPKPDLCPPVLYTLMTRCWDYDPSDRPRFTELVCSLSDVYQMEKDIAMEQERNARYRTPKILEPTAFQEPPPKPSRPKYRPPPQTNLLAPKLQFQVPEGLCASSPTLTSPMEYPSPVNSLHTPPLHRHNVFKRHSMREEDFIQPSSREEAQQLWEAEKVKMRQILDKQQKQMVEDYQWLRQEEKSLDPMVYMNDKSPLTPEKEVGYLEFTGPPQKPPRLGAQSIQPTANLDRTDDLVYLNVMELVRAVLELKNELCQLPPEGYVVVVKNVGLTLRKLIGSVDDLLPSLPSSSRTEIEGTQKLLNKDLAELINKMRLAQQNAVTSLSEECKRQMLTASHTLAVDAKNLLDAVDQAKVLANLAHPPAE
T6 sequence (P11362 458-765 C488A/C584S): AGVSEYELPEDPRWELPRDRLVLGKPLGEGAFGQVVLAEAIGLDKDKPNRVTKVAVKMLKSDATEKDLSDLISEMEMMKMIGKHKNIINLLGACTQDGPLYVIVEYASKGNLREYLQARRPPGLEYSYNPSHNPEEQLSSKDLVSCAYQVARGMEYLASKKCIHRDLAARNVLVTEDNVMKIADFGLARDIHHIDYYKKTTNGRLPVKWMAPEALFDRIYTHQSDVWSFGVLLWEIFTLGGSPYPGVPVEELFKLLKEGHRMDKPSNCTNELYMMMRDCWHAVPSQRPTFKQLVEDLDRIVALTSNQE

CCCS(=O)(=O)Nc1cccc(C(=O)c2c[nH]c3ncc(-c4ccccc4)cc23)c1F [Compound P-0897, Propane-1-sulfonic acid [2-fluoro-3-(5-phenyl-1H-pyrrolo[2,3-b]pyridine-3-carbonyl)-phenyl]-amide]
≤ 10 µM: c-Raf-1 | TEC | Pyk2 | Jnk1 | B-Raf | FGFR1 | Btk | B-Raf V600E

CS(=O)(=O)Nc1ccc(F)c(C(=O)c2c[nH]c3ncc(-c4cccc(C(N)=O)c4)cc23)c1 [Compound P-0228, 3-[3-(2-Fluoro-5-methanesulfonylamino-benzoyl)-1H-pyrrolo[2,3-b]pyridin-5-yl]-benzamide]
not listed: Pyk2 | Kit | Fak | Src
≤ 10 µM: all other assays above

C=C(C)c1cnc2[nH]cc(C(=O)c3c(F)ccc(NS(=O)(=O)CCC)c3F)c2c1 [Compound P-0991, Propane-1-sulfonic acid [2,4-difluoro-3-(5-isopropenyl-1H-pyrrolo[2,3-b]pyridine-3-carbonyl)-phenyl]-amide]
≤ 10 µM: c-Raf-1 | TEC | Pyk2 | Jnk1 | B-Raf | Jnk3 | FGFR1 | Btk | B-Raf V600E

O=C(NCc1ccc(CCc2c[nH]c3ncccc23)cc1)Nc1ccccc1 [Compound P-0429]
≤ 10 µM: TEC | Btk

CS(=O)(=O)Nc1ccc(F)c(C(=O)c2c[nH]c3ncc(-c4cccc(S(C)(=O)=O)c4)cc23)c1 [Compound P-0297, N-{4-Fluoro-3-[5-(3-methanesulfonyl-phenyl)-1H-pyrrolo[2,3-b]pyridine-3-carbonyl]-phenyl}-methanesulfonamide]
not listed: Pyk2 | Met | Jnk3 | Zap70 | Kit | Fak | Src
≤ 10 µM: all other assays above

CS(=O)(=O)Nc1cccc(-c2cnc3[nH]cc(C(=O)c4cc(NS(C)(=O)=O)ccc4F)c3c2)c1 [Compound P-0156, N-{4-Fluoro-3-[5-(3-methanesulfonylamino-phenyl)-1H-pyrrolo[2,3-b]pyridine-3-carbonyl]-phenyl}-methanesulfonamide]
≤ 10 µM: c-Raf-1 | TEC | Met | Jnk1 | Jnk2 | Ret | FGFR1 | Btk | B-Raf V600E

COC(=O)Nc1ccc(F)c(Cc2c[nH]c3ncc(-c4cccnc4)cc23)c1F [Compound P-0257, [2,4-Difluoro-3-(5-pyridin-3-yl-1H-pyrrolo[2,3-b]pyridin-3-ylmethyl)-phenyl]-carbamic acid methyl ester]
not listed: Met | Jnk2 | Zap70 | Src
≤ 10 µM: all other assays above

CCCS(=O)(=O)Nc1ccc(F)c(C(=O)c2c[nH]c3ncc(C(C)C)cc23)c1F [Compound P-0997]
≤ 10 µM: c-Raf-1 | TEC | Pyk2 | Jnk1 | Src | B-Raf | FGFR1 | Btk | B-Raf V600E

— patent publication US8415469B2, “Compounds and methods for kinase modulation, and indications therefor” (Plexxikon Inc., priority 2005, dated 2013)
